The text below walks through data of US20230277525A1, “CONJUGATE OF FUNCTIONAL DRUG AND TOLL-LIKE RECEPTOR 7 OR 8 AGONIST OF WHICH ACTIVE SITE IS TEMPORARILY INACTIVATED AND USE THEREOF” (priority 2020, published 2023).

The test system of data set [1] is IL-6. Briefly: blood inflammatory cytokine (IL-6) level after intravenous injection, AAC-002 study. The data set is classed as in vivo. The following applies: mouse, two hours after intravenous injection, ELISA; FIG. 20. The procedure: To confirm the effect of the antibody-resiquimod complex (AAC-002) synthesized in the same manner as in Example 15.1 on the secretion of an inflammatory cytokine in blood, two hours after the AAC-002 complex (conjugated TLR7/8a-Blocked active site) was intravenously injected into a mouse, blood samples were collected. The collected blood sample was centrifuged at 10,000×g for 20 minutes to separate serum, and the concentration of IL-6, which is a representative inflammatory cytokine, present in serum was measured using the Invitrogen mouse IL-6 ELISA kit. As controls, a phosphate-buffered saline-injected group (Blank), a resiquimod only-injected group (Bare TLR7/8a-Uncomplexd), and a group into which an antibody-resiquimod complex in which the antibody binds to a site other than the active site, is injected (conjugated TLR7/8a-Live active site) were used for comparison.

Data set [2] concerns IL-6. Put plainly: blood inflammatory cytokine (IL-6) level after intravenous injection, AAC-001 study. The note with it: mouse, blood collected at 0, 1, 2 and 4 hours, ELISA, FIG. 18. The data set is classed as in vivo. The procedure:
To confirm the effect of the antibody-resiquimod complex (AAC-001) synthesized in the same manner as in Example 14.1 on the secretion of inflammatory cytokine in blood, after intravenously injecting the AAC-001 complex or resiquimod into a mouse, blood samples were collected at 0, 1, 2, and 4 hours. The collected blood sample was centrifuged at 10,000×g for 20 minutes to separate serum, and the concentration of IL-6, which is a representative inflammatory cytokine, present in serum was measured using the Invitrogen mouse IL-6 ELISA kit.

The nature of data set [3]: size of complex in aqueous solution by spectroscopy. The data set is classed as physicochemical. The following applies: in an aqueous solution; FIG. 21. How it is done: To synthesize a complex of a protein antigen, which is a type of sulfhydryl group-containing protein-based drug, and resiquimod, having a bond cleaved by cathepsin-B, first, resiquimod to which a linker binds to its active site was synthesized. In further detail, resiquimod (10 mg) and Mal-Val-Cit-PAB-PNP (47.2 mg) were added to 2 mL of N,N-dimethylformamide (DMF), and then dissolved. Afterward, N,N-diisopropylethylamine (DIPEA; 6.7 μL) and 1-hydroxybenzotriazole hydrate (1-HOBt; 315 μg) were added. Then, a mixture was prepared by stirring at room temperature for 16 hours. The OVA protein antigen (10 mg) was added to the prepared mixture and reacted, thereby preparing a complex, and then the resulting complex was purified by thin-layer chromatography, thereby preparing an OVA protein antigen-resiquimod complex having a bond cleaved by cathepsin-B. Then, the prepared complex was subjected to spectroscopy to confirm its size.

Consider `CCOCc1nc2c(N)nc3ccccc3c2n1CC(C)(C)O` [resiquimod], for which the “inflammatory cytokine (IL-6) level in serum” value was “remarkably increasing an inflammatory cytokine level in blood” in data set [1]; “promotes the secretion of inflammatory cytokines and induces a cytokine storm” in data set [2].

B1: complex of the OVA protein antigen and resiquimod, having a bond cleaved by cathepsin-B: OVA protein antigen linked to resiquimod active site via Mal-Val-Cit-PAB linker cleaved by cathepsin-B (conjugate, UniProt P01012 2-386, looked up)
Ovalbumin: GSIGAASMEFCFDVFKELKVHHANENIFYCPIAIMSALAMVYLGAKDSTRTQINKVVRFDKLPGFGDSIEAQCGTSVNVHSSLRDILNQITKPNDVYSFSLASRLYAEERYPILPEYLQCVKELYRGGLEPINFQTAADQARELINSWVESQTNGIIRNVLQPSSVDSQTAMVLVNAIVFKGLWEKAFKDEDTQAMPFRVTEQESKPVQMMYQIGLFRVASMASEKMKILELPFASGTMSMLVLLPDEVSGLEQLESIINFEKLTEWTSSNVMEERKIKVYLPRMKMEEKYNLTSVLMAMGITDVFSSSANLSGISSAESLKISQAVHAAHAEINEAGREVVGSAEAGVDAASVSEEFRADHPFLFCIKHIATNAVLFFGRCVSP
modifications: resiquimod via Mal-Val-Cit-PAB linker
Regarding B1, in data set [3], the nanoparticle size entry was “approximately 99.7 nm”.
